Source: patent US12630520B2, “Left-handed bicyclic morpholine and salt thereof, preparation method therefor, pharmaceutical composition, and use” (Institute of Materia Medica, Chinese Academy of Medical …, priority 2019, dated 2026)
Where “and” joins values, the source holds several entries; their conditions need not be identical. Equal entries are not always repeated. Where two headings read alike, the source gives them in different places.

Tests used:
HepG2 cells [1] = test: 4-Acetamidophenol (APAP)-induced in vitro hepatocyte injury, MTT and LDH; format: cell-based, human; conditions: 8 mM APAP; for LDH level in the cell culture supernatant: HepG2, 10 uM, 24 h (the FIGURE); for Survival rates (%) / OD Mean ± SD / Cell survival rate increase (%): HepG2, 10 μM; for Survival rates (%) / OD Mean ± SD: 24 h, MTT; for OD Mean ± SD: 570 nm; for Cell survival rate increase (%): versus model group
Description: (§1) Human liver cancer HepG2 cell well retained the characteristics of normal human hepatocytes, and they were grown in a DMEM medium containing 10% of fetal calf cerium (containing 100 U/mL of penicillin and 100 μg/mL of streptomycin) at the culturing conditions: 37° C., 5% of CO2 and a saturated humidity. A solution containing 0.25% of trypsin and 0.02% of EDTA was used for digestions and passages.
(§2) A MTT method was adopted. The HepG2 cells were inoculated in a 96-well cell culture plate, and after 24 hour cultures, the (+)IMM-H014, the (−)IMM-H014 and the (±)IMM-H014 were added in a non-toxic concentration whilst the 4-acetamidophenol (APAP, a final concentration of 8 mM) was added thereto. A Bicyclol positive control group, a solvent control group and a model group were set for the experiment. The culture was continued for 24 h. 100 μL of the culture solution was taken and centrifuged, and a full-automatic biochemical analyzer in a LDH detection kit was utilized to detect the LDH level therein. The remaining culture solution was discarded, and to each well, 100 μL of a MTT (0.5 mg/mL) solution was added to continue the culture for 4 hours. The MTT solution was discarded, and to each well, 150 μL of DMSO was added. The mixture was oscillated by a mixing oscillator, and the absorbance value was measured at a wavelength of 570 nm in a microplate reader. Cell survival rate (%)=(OD mean of administration group/OD mean of solvent control group)×100%.
(§3) The data were presented as a number mean±standard deviation (x±SD).

HepG2 cells [2] = test: Carbon tetrachloride (CCl4)-induced in vitro hepatocyte injury, MTT; format: cell-based, human; conditions: HepG2, 10 μM; for Cell survival rate increase (%): 0.6% CCl4, versus model group
Description: as §1, with “cells” for “cell”
as §2, with “carbon tetrachloride (CCl4,” for “4-acetamidophenol (APAP,”, “0.6%)” for “8 mM)”, “They acted on the cells continuously” for “The culture was continued”, “h.” for “h. 100 μL of the culture solution was taken and centrifuged, and a full-automatic biochemical analyzer in a LDH detection kit was utilized to detect the LDH level therein.”, “The” for “The remaining”, “to” for “to continue the”
as §3

HepG2 cells [3] = test: Toxicity to HepG2 cells (cell survival rate, 48 h); format: cell-based, human; conditions: HepG2, 10 μM, not significantly toxic
Source text: The concentration was utilized to investigate the protective effects on APAP injured hepatocytes.
The concentration was utilized to investigate the protective effects on CCl4 injured hepatocytes.

[4] = Pharmacokinetics in male SD rats after intragastric administration; format: in vivo, rat; conditions: 50 mg/kg intragastric, plasma
Description: Male SD rats were intragastrically administrated with the single enantiomer and racemate of IMM-H014, to compare their pharmacokinetic characteristics in rat bodies.
36 male SD rats were randomly divided into 6 groups, 6 animals in each group, including: (+)IMM-H014 intragastric administration group, (−)IMM-H014 intragastric administration group, and (±)IMM-H014 intragastric administration group. The administration dosage was 50 mg/kg. The rats were in fasting for 12 hours before the administrations and they could freely drink water.
100 mg of the IMM-H014 raw material drug was weighed and dissolved in 20 ml of purified water to prepare a 5 mg/ml administration solution, which was administrated (1 ml/100 g) in a single dose according to body weights.
At 0 hour before administrations, and at 5 min, 10 min, 30 min, 1 h, 2 h, 3 h, 5 h, 8 h, 12 h and 24 h after administrations, 250 μL of blood was taken from fundus plexus venosus, placed in an EP tube containing 10 μL of heparin sodium, and centrifuged at 4000 rpm for 10 min, and then the blood plasma was taken and stored in a refrigerator at −80° C.
50 μL of a plasma sample was precisely pipetted, and after 10 μL of an internal standard working solution was added thereto, they were placed in a 1.5 ml EP. They were whirled for 30 s and added with 500 μl of ethyl acetate. Then, they were whirled and vibrated for 5 min, and after being kept still for 10 min at 4° C., they were centrifuged for 5 min at 13000 r. The supernatant was taken and dried by blowing N2 at 30° C. The residue was re-dissolved by adding 100 μL of the initial mobile phase and centrifuged for 5 min at 13000 r, and the supernatant was transferred into a sampling bottle for measurements.
• Chromatographic column: Agilent ZORBAX SB-C18 (2.1×100 mm, 3.5 μm) • Mobile phase A: water (0.1% formic acid, 1 mM ammonium acetate); mobile • phase B: acetonitrile (0.1% formic acid) • Column temperature: at 35° C.; sampling amount: 3 μL • Elution: 0-2 min: 40%-53% of the B; 2-3 min: 53%-40% of the B 4.4 Mass Spectrometry Conditions
Ion source: ESI; detection mode: positive ions; temperature of drying gases: 300° C.; flow rate of drying gases: nitrogen gas, 11 L/min; atomizing gas: nitrogen, […]; capillary voltage: 4000 V; scanning mode: Multiple Reaction Measurement (MRM); ion pairs and related voltage parameters were shown below:
The original data obtained after samples were collected was treated by adopting MassHunter QQQ data processing software, to obtain blood-drug concentration data; then, the pharmacokinetic parameters were calculated through DAS software; finally, the t-test was performed by adopting SPSS software, to compare if there were statistical differences in drugs having the same optical activity but in different batches and in drugs having different optical activities, wherein the P<0.05 was considered to have significant differences. In the study, by intragastrically administrating 3 groups of SD rats with the single enantiomer and racemate of the IMM-H014 respectively, their pharmacokinetic characteristics in the rat bodies were studied.

Row | Compound | LDH level in the cell culture supernatant (HepG2 cells [1]) | Survival rates (%) (HepG2 cells [1]) | OD Mean ± SD (HepG2 cells [1]) | Cell survival rate increase (%) (HepG2 cells [1]) | Survival rates (%) (HepG2 cells [2]; 0.6% CCl4, 24 h, MTT) | Cell survival rate increase (%) (HepG2 cells [2]) | cell survival rate (HepG2 cells [3]) | AUC (0-t) [4] | AUC (0-∞) [4] | CLz/F [4] | Cmax [4] | Tmax [4] | t1/2z [4] | OD Mean ± SD (HepG2 cells [2]; 0.6% CCl4, 24 h, MTT, 570 nm) | Cmax ([4]; male, SD, rat, po, 50 mg/kg, read-out: Cmax) | Tmax ([4]; male, SD, rat, po, 50 mg/kg, read-out: Tmax)
1 | COC(=O)c1cc(OC)c2c(c1-c1c(CN3CCOCC3)cc(OC)c3c1OCO3)OCO2 (racemic) [(±)IMM-H014] | could reduce the LDH levels | 50.63% | 0.453 ± 0.032 | 32.1% | 92.09% | 18.74% | 90% | 5.242 ± 3.447 µg·h/mL | 5.268 ± 3.432 µg·h/mL | 14.0 ± 9.3 L/h/kg | 3.324 ± 2.307 µg/mL | 12.5 ± 9 min | 72.36 ± 16.2 min |  |  | 
2 | COC(=O)c1cc(OC)c2c(c1-c1c(CN3CCOCC3)cc(OC)c3c1OCO3)OCO2 [(+)IMM-H014] | could reduce the LDH levels | 54.58% | 0.489 ± 0.098 | 41.4% and 42.4% | 87.32% | 12.59% | 90% | 2.876 ± 1.978 µg·h/mL | 2.877 ± 1.977 µg·h/mL | 25.0 ± 15.7 L/h/kg |  |  | 59 ± 15.6 min | 0.799 ± 0.014 | 2.28 ± 2 µg/mL | 20 ± 11.4 min
3 | COC(=O)c1cc(OC)c2c(c1-c1c(CN3CCOCC3)cc(OC)c3c1OCO3)OCO2 [(−)IMM-H014] | could reduce the LDH levels | 67.01% | 0.600 ± 0.054^###& | 74.8% | 104.44% | 34.66% | 90% | 5.866 ± 2.979 µg·h/mL | 5.892 ± 3.005 µg·h/mL | 10.7 ± 6.2 L/h/kg | 3.28 ± 1.579 µg/mL | 18 ± 10.8 min | 74.88 ± 19.8 min |  |  | 
